Experimental data as given in ChEMBL document CHEMBL1201862, “PubChem BioAssay data set” (2004).
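Values below derive from 48-hour exposures of cells grown in 96-well plates, with endpoints linearly interpolated between the two concentrations bracketing the appropriate inhibition level. At the GI50, growth is halved.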 Active and inactive are the calls of the source. No stated cut-off is given here; in the data, active = GI50 up to about 1.1 µM and inactive = higher.

What was measured:
Assay in all cases: growth of human tumour cells (NCI), 48 h
[1] = tested on: CAKI-1
[2] = tested on: DMS-114
[3] = tested on: OVCAR-5
[4] = tested on: UACC-62
[5] = tested on: SK-MEL-2
[6] = tested on: U-251
[7] = tested on: M19-MEL
[8] = tested on: SNB-78
[9] = tested on: SF-268
[10] = tested on: SW-620
[11] = tested on: 786-0
[12] = tested on: OVCAR-4
[13] = tested on: NCI-H460
[14] = tested on: RXF 393
[15] = tested on: UACC-257
[16] = tested on: M14
[17] = tested on: NCI-H522
[18] = tested on: HCT-116
[19] = tested on: OVCAR-3
[20] = tested on: A498
[21] = tested on: DLD-1
[22] = tested on: SF-539
[23] = tested on: COLO 205
[24] = tested on: NCI-H23
[25] = tested on: NCI-H226
[26] = tested on: HCT-15
[27] = tested on: UO-31
[28] = tested on: HCC 2998
[29] = tested on: HOP-62
[30] = tested on: K562
[31] = tested on: EKVX
[32] = tested on: IGROV-1
[33] = tested on: TK-10
[34] = tested on: KM12
[35] = tested on: HT-29
[36] = tested on: SK-MEL-28
[37] = tested on: XF498
[38] = tested on: SR
[39] = tested on: SNB-19
[40] = tested on: DMS-273
[41] = tested on: SK-OV-3
[42] = tested on: OVCAR-8
[43] = tested on: SF-295
[44] = tested on: CCRF-CEM
[45] = tested on: HOP-18
[46] = tested on: A549
[47] = tested on: HOP-92
[48] = tested on: Malme-3M
[49] = tested on: SN12C
[50] = tested on: SNB-75
[51] = tested on: LXFL 529
[52] = tested on: ACHN
[53] = tested on: HL-60

SMILES: CS(=O)(=O)Oc1cccc(/C=N/N=C(\N)NO)c1
- GI50 [1]: 20.9 µM (inactive)
- GI50 [2]: 9.55 µM (inactive)
- GI50 [3]: 36 µM (inactive)
- GI50 [4]: 4.84 µM (inactive)
- GI50 [5]: 34.8 µM (inactive)
- GI50 [6]: 27.7 µM (inactive)
- GI50 [7]: 42.5 µM (inactive)
- GI50 [8]: > 100 µM (inactive)
- GI50 [9]: 24.2 µM (inactive)
- GI50 [10]: 19.9 µM (inactive)
- GI50 [11]: 19.3 µM (inactive)
- GI50 [12]: 18 µM (inactive)
- GI50 [13]: 24.8 µM (inactive)
- GI50 [14]: 37.4 µM (inactive)
- GI50 [15]: 38.8 µM (inactive)
- GI50 [16]: 27.1 µM (inactive)
- GI50 [17]: 26.2 µM (inactive)
- GI50 [18]: 32.9 µM (inactive)
- GI50 [19]: 35.2 µM (inactive)
- GI50 [20]: 73.1 µM (inactive)
- GI50 [21]: 24.9 µM (inactive)
- GI50 [22]: 28.6 µM (inactive)
- GI50 [23]: 26.7 µM (inactive)
- GI50 [24]: 27.2 µM (inactive)
- GI50 [25]: 23.3 µM (inactive)
- GI50 [26]: 35.1 µM
- GI50 [27]: 22.8 µM (inactive)
- GI50 [28]: 20.6 µM (inactive)
- GI50 [29]: 27.5 µM (inactive)
- GI50 [30]: 19.1 µM (inactive)
- GI50 [31]: 34 µM (inactive)
- GI50 [32]: 35.2 µM (inactive)
- GI50 [33]: 14.7 µM (inactive)
- GI50 [34]: 25.1 µM (inactive)
- GI50 [35]: 24.8 µM (inactive)
- GI50 [36]: > 100 µM (inactive)
- GI50 [37]: 10.7 µM (inactive)
- GI50 [38]: 27.4 µM (inactive)
- GI50 [39]: 64.9 µM (inactive)
- GI50 [40]: 19.9 µM (inactive)
- GI50 [41]: 27 µM (inactive)
- GI50 [42]: 33.2 µM (inactive)
- GI50 [43]: 49.3 µM (inactive)
- GI50 [44]: 23.9 µM (inactive)
- GI50 [45]: 69.8 µM (inactive)
- GI50 [46]: 21.8 µM (inactive)
- GI50 [47]: 22.4 µM (inactive)
- GI50 [48]: 23.1 µM (inactive)
- GI50 [49]: 29.2 µM (inactive)
- GI50 [50]: 2.96 µM (inactive)
- GI50 [51]: 19.2 µM (inactive)
- GI50 [52]: 22.2 µM (inactive)
- GI50 [53]: 19 µM (inactive)
